Test results from paper PMC11087588, “Genetic and functional diversity of β-N-acetylgalactosamine-targeting glycosidases expanded by deep-sea metagenome analysis” (Nature Communications, 2024).

Assays:
NgaP2 = target: T1, NgaP2 (Paenibacillus sp. TS12, UniProt A0AAT8XUB3); experiment: crystal structure of complex; assay type: binding; settings: 5 mM ligand in crystallization; active site, oxazolinium intermediate analogue
T1 construct: cloned from genomic DNA, pET-47b(+), E. coli BL21 Star (DE3); His tag cut with HRV3C; monomer; not the GH123 NgaP of the same strain
T1 sequence (A0AAT8XUB3 4-581): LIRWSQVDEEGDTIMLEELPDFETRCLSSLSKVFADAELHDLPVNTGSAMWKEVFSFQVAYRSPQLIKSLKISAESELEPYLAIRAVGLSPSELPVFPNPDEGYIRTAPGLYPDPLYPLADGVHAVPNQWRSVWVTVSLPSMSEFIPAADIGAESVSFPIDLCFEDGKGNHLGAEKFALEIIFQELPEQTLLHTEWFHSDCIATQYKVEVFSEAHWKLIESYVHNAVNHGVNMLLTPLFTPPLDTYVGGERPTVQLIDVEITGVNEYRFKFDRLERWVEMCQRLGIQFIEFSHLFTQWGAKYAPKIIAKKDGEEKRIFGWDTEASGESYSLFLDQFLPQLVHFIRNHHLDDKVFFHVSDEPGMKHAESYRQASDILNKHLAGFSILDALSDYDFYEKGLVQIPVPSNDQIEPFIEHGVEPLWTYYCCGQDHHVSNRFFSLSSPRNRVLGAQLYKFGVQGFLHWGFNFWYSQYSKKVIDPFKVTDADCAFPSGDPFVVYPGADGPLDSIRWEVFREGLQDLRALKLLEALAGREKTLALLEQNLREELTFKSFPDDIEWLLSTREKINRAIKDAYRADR

NgaDssm = target: T2, NgaDssm (metagenome, UniProt Z9PL66MBS5); experiment: crystal structure of complex; assay type: binding; settings: 5 mM ligand in crystallization; active site, oxazolinium intermediate analogue
T2 construct: signal peptide removed; pET-47b(+), E. coli BL21 Star (DE3); His tag cut with HRV3C; monomer
T2 sequence (Z9PL66MBS5 4-542): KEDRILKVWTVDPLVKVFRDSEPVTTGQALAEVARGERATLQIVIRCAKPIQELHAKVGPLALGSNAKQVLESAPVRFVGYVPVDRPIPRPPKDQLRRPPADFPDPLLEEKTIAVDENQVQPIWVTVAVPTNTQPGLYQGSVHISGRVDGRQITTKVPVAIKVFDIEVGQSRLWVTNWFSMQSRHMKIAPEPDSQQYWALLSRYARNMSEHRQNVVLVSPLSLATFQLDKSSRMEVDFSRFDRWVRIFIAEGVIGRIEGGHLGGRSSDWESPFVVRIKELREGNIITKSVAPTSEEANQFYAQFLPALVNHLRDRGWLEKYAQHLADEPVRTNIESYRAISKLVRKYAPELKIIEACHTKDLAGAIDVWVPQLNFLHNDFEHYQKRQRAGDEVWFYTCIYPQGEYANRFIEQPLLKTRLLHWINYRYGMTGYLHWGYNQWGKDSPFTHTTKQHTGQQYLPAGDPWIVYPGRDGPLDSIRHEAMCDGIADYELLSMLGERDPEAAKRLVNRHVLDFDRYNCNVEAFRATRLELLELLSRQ

Question: Which results are given for `CC1=N[C@@H]2[C@@H](O)[C@@H](O)[C@@H](CO)O[C@@H]2S1` [GalNAc-thiazoline]?
Answer: crystal structure of complex (NgaP2): the structures of the NgaAt, NgaDssm, and NgaP2 complexes with GalNAc-thiazoline were successfully characterized; crystal structure of complex (NgaDssm): the structures of the NgaAt, NgaDssm, and NgaP2 complexes with GalNAc-thiazoline were successfully characterized
